Article PMC12203311, “Design, synthesis, in silico and in vitro evaluation of pyrrole–indole hybrids as dual tubulin and aromatase inhibitors with potent anticancer activities” (RSC Advances, 2025)

What was measured:
K-562 = test: NCI60 five-dose screen; assay type: cell-based; conditions: Homo sapiens, K562, K-562, leukemia; for CC50: read-out: LC50 (the source's name)
EKVX = test: NCI60 five-dose screen; assay type: cell-based; conditions: Homo sapiens, NSC lung cancer; for CC50: read-out: LC50 (the source's name)
NCI-H522 = test: NCI60 five-dose screen; assay type: cell-based; conditions: Homo sapiens, NCI-H522, NSC lung cancer; for CC50: read-out: LC50 (the source's name)
HCC-2998 = test: NCI60 five-dose screen; assay type: cell-based; conditions: Homo sapiens, HCC-2998, colon cancer; for CC50: read-out: LC50 (the source's name)
HT29 = test: NCI60 five-dose screen; assay type: cell-based; conditions: Homo sapiens, HT-29, HT29, colon cancer; for CC50: read-out: LC50 (the source's name)
SW-620 = test: NCI60 five-dose screen; assay type: cell-based; conditions: Homo sapiens, SW-620, colon cancer; for CC50: read-out: LC50 (the source's name)
SF-539 = test: NCI60 five-dose screen; assay type: cell-based; conditions: Homo sapiens, SF-539, CNS cancer; for CC50: read-out: LC50 (the source's name)
SNB-19 = test: NCI60 five-dose screen; assay type: cell-based; conditions: Homo sapiens, SNB-19, CNS cancer; for CC50: read-out: LC50 (the source's name)
M14 = test: NCI60 five-dose screen; assay type: cell-based; conditions: Homo sapiens, M14, melanoma; for CC50: read-out: LC50 (the source's name)
SK-MEL-2 = test: NCI60 five-dose screen; assay type: cell-based; conditions: Homo sapiens, SK-MEL-2, melanoma; for CC50: read-out: LC50 (the source's name)
UACC-62 = test: NCI60 five-dose screen; assay type: cell-based; conditions: Homo sapiens, UACC-62, melanoma; for CC50: read-out: LC50 (the source's name)
OVCAR-3 = test: NCI60 five-dose screen; assay type: cell-based; conditions: Homo sapiens, OVCAR-3, ovarian cancer; for CC50: read-out: LC50 (the source's name)
OVCAR-5 = test: NCI60 five-dose screen; assay type: cell-based; conditions: Homo sapiens, OVCAR-5, ovarian cancer; for CC50: read-out: LC50 (the source's name)
NCI/ADR-RES = test: NCI60 five-dose screen; assay type: cell-based, human; conditions: Homo sapiens, ovarian cancer; for CC50: read-out: LC50 (the source's name)
ACHN = test: NCI60 five-dose screen; assay type: cell-based; conditions: Homo sapiens, renal cancer; for CC50: read-out: LC50 (the source's name)
TK-10 = test: NCI60 five-dose screen; assay type: cell-based; conditions: Homo sapiens, TK-10, renal cancer; for CC50: read-out: LC50 (the source's name)
DU-145 = test: NCI60 five-dose screen; assay type: cell-based; conditions: Homo sapiens, DU-145, prostate cancer; for CC50: read-out: LC50 (the source's name)
MCF7 = test: NCI60 five-dose screen; assay type: cell-based; conditions: Homo sapiens, MCF7, breast cancer; for CC50: read-out: LC50 (the source's name)
MDA-MB-231/ATCC = test: NCI60 five-dose screen; assay type: cell-based; conditions: Homo sapiens, breast cancer; for CC50: read-out: LC50 (the source's name)
T-47D = test: NCI60 five-dose screen; assay type: cell-based; conditions: Homo sapiens, T47D, breast cancer; for CC50: read-out: LC50 (the source's name)
Human CYP19 (aromatase) = molecular target: T1, Human CYP19 (aromatase) (Homo sapiens, UniProt P11511); test: Aromatase inhibition assay (DBF fluorometric substrate); assay type: biochemical; conditions: active defined as IC50 < 12.5 µM
T1 construct: purchased GENTEST, Woburn, MA 456260; host or cells: baculovirus/insect cells
T1 sequence (P11511 1-503): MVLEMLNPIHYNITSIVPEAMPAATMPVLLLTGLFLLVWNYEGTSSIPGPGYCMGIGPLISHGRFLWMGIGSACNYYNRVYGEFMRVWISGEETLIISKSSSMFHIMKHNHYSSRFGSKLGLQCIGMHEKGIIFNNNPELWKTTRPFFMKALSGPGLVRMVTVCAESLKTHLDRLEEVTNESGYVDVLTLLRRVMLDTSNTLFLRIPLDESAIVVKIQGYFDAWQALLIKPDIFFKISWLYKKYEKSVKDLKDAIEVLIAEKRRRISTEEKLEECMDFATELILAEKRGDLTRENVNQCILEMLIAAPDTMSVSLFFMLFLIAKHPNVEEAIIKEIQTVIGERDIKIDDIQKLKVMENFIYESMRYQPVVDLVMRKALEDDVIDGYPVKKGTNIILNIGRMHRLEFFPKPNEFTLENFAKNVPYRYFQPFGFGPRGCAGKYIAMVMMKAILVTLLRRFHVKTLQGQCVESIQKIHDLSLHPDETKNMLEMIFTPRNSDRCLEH
Experimental: Aromatase enzyme was purchased from GENTEST, Woburn, MA01801, USA (Supersom human CYP19+oxidoreductase, baculovirus/insect cell-expressed; Product No. 456260). The aromatase inhibitory activity was performed using Human CYP19 enzymes and DBF as a fluorometric substrate as described by Stresser, et al.[41] with minor modifications. The mixture, containing 100 µL of cofactor/serial dilution buffer was pre-incubated in 37 °C for 10 min. […] After incubation at 37 °C for 30 min, the reaction was stopped by addition of 50 µL of 2.2 M NaOH. Fluorescence signal was monitored using an excitation wavelength of 490 nm and emission wavelength of 530 nm.

[1] = test system: T47D breast cancer cell line; test: Cytotoxicity MTT assay, T47D; assay type: cell-based, human; conditions: Homo sapiens, T47D; MTT, 48 hours
Experimental: T47D (ATCC HTB-133) was purchased from Biomedia (Thailand) Co., LTD. L929 (ATCC CCL-1) was received as a gift from Prof. Tanapat Palaga, Department of Microbiology, Faculty of Science, Chulalongkorn University, Bangkok, Thailand. The cells were cultured in Dulbecco's Modified Eagle's Medium (DMEM; Gibco) supplemented with 10% fetal bovine serum (FBS; HyClone), 100 U mL^−1 penicillin and 100 µg mL^−1 streptomycin (Gibco) at 37 °C with 5% CO2.
The antiproliferative activity was determined by MTT assay. Briefly, the cells were plated into a 96-well microplate at the density of 10 000 cells per well. The cells were allowed to grow overnight before treated with the solutions of compounds in culture medium at the designated concentrations for 48 hours. The medium was then replaced with MTT solution (0.5 mg mL^−1 MTT in culture medium) and incubated for 3 hours. A 100 µL of DMSO was used to dissolve the produced formazan. Absorbance at 570 nm was then measured using a microplate reader (Varioskan™ LUX multimode microplate reader, Thermo Scientific™). Percent viability was calculated relative to the vehicle control (DMSO).

## O=C(N/N=C/c1cc(Br)c(Br)[nH]1)c1[nH]c2ccc(Br)cc2c1-c1ccccc1 [Derivative 3f, (E)-5-Bromo-N′-((4,5-dibromo-1H-pyrrol-2-yl)methylene)-3-phenyl-1H-indole-2-carbohydrazide]
K-562
  GI50: 1.93 µM
  CC50: 76.4 µM
EKVX
  GI50: 3.45 µM
  CC50: 44.8 µM
NCI-H522
  GI50: 0.623 µM
  CC50: 23.2 µM
HCC-2998
  GI50: 2.3 µM
  CC50: 24 µM
HT29
  GI50: 2.33 µM
  CC50: 20.8 µM
SW-620
  GI50: 2.96 µM
  CC50: 41.9 µM
SF-539
  GI50: 1.78 µM
  CC50: 15.7 µM
SNB-19
  GI50: 3.47 µM
  CC50: 39.3 µM
M14
  GI50: 2.81 µM
  CC50: 66.1 µM
SK-MEL-2
  GI50: 2.68 µM
  CC50: 36.3 µM
UACC-62
  GI50: 1.2 µM
  CC50: 38 µM
OVCAR-3
  GI50: 2.3 µM
  CC50: 24.5 µM
OVCAR-5
  GI50: 3.6 µM
  CC50: 40.2 µM
NCI/ADR-RES
  GI50: 1.14 µM
  CC50: 9.73 µM
ACHN
  GI50: 2.59 µM
  CC50: 35.5 µM
TK-10
  GI50: 6.8 µM
  CC50: 49.5 µM
DU-145
  GI50: 3.18 µM
  CC50: 33.9 µM
MCF7
  GI50: 1.99 µM
  CC50: 33.7 µM
MDA-MB-231/ATCC
  GI50: 2.49 µM
  CC50: 26.3 µM
T-47D
  GI50: 3.84 µM
  CC50: 74.3 µM
Human CYP19 (aromatase)
  IC50: 1.5 ± 0.3 µM
[1]
  IC50: 19.1 ± 5.4 µM

## CCc1c[nH]c(/C=N/NC(=O)c2[nH]c3ccc(Br)cc3c2-c2ccccc2)c1 [Derivative 3t, (E)-5-Bromo-N′-((4-ethyl-1H-pyrrol-2-yl)methylene)-3-phenyl-1H-indole-2-carbohydrazide]
K-562
  GI50: 0.348 µM
  CC50: > 100 µM
EKVX
  GI50: 0.448 µM
  CC50: 35.6 µM
NCI-H522
  GI50: 0.206 µM
  CC50: 29.5 µM
HCC-2998
  GI50: 0.342 µM
  CC50: 30.4 µM
HT29
  GI50: 0.308 µM
  CC50: 21 µM
SW-620
  GI50: 0.431 µM
  CC50: 42.5 µM
SF-539
  GI50: 0.203 µM
  CC50: 19.6 µM
SNB-19
  GI50: 0.396 µM
  CC50: 41.3 µM
M14
  GI50: 0.337 µM
  CC50: 38.4 µM
SK-MEL-2
  GI50: 0.454 µM
  CC50: 43.8 µM
UACC-62
  GI50: 0.442 µM
  CC50: 32.1 µM
OVCAR-3
  GI50: 0.316 µM
  CC50: 41.7 µM
OVCAR-5
  GI50: 0.337 µM
  CC50: 37.2 µM
NCI/ADR-RES
  GI50: 0.247 µM
  CC50: 22 µM
ACHN
  GI50: 0.628 µM
  CC50: 35.5 µM
TK-10
  GI50: 2.83 µM
  CC50: 42.1 µM
DU-145
  GI50: 0.38 µM
  CC50: 39.5 µM
MCF7
  GI50: 0.375 µM
  CC50: 33.8 µM
MDA-MB-231/ATCC
  GI50: 0.311 µM
  CC50: 42.4 µM
T-47D
  GI50: 1.59 µM
  CC50: 39.3 µM
Human CYP19 (aromatase)
  IC50: 4.7 ± 0.5 µM
[1]
  IC50: 4.6 ± 2.9 µM
